Data: ChEMBL document CHEMBL1137894, “3-Thio-quinolinone maxi-K openers for the treatment of erectile dysfunction” (2004)

How the values were obtained:
Oocyte [1] = assay: Percentage opening of human Maxi-K channel in transfected oocyte cells at 20 uM; assay type: cell-based
Oryctolagus cuniculus = species on record: Oryctolagus cuniculus; assay: Percentage relaxation of phenylephrine-contracted rabbit corpus cavernosum tissue strips at concentration of 10 uM; assay type: functional
Oocyte [2] = assay: Percentage opening of human Maxi-K channel in transfected oocyte cells at 10 uM; assay type: cell-based
Oocyte [3] = assay: Percentage opening of human Maxi-K channel in transfected oocyte cells at 5 uM; assay type: cell-based

Row | SMILES | Activity (Oocyte [1]) [%] | Relaxation (Oryctolagus cuniculus) [%] | Activity (Oocyte [2]) [%] | Activity (Oocyte [3]) [%]
1 | O=C(CCN1CCOCC1)Nc1ccc(Sc2c(O)nc3ccc(C(F)(F)F)cc3c2-c2cc(Cl)ccc2O)cc1 | 453 | 22 |  | 
2 | CN(C)CCCN(C)CC(O)CSc1c(O)nc2ccc(C(F)(F)F)cc2c1-c1cc(Cl)ccc1O (stereo not drawn) | 214 |  |  | 
3 | O=S(=O)(CC(F)(F)F)Nc1ccc(Sc2c(O)nc3ccc(C(F)(F)F)cc3c2-c2cc(Cl)ccc2O)cc1 | 170 |  |  | 
4 | CCS(=O)(=O)Nc1ccc(Sc2c(O)nc3ccc(C(F)(F)F)cc3c2-c2cc(Cl)ccc2O)cc1 |  |  | 296 | 
5 | CN(CCCN1CCN(C)CC1)CCC(O)CSc1c(O)nc2ccc(C(F)(F)F)cc2c1-c1cc(Cl)ccc1O (stereo not drawn) | 515 |  |  | 
6 | O=C(CN1CCC(N2CCCCC2)CC1)Nc1ccc(Sc2c(O)nc3ccc(C(F)(F)F)cc3c2-c2cc(Cl)ccc2O)cc1 | 283 | 45 |  | 
7 | COc1ccc(Cl)cc1-c1c(SCC(O)CN2CCC(C)CC2)c(O)nc2ccc(C(F)(F)F)cc12 (stereo not drawn) | 115 |  |  | 
8 | O=C(CCN1CCC(O)CC1)CSc1c(O)nc2ccc(C(F)(F)F)cc2c1-c1cc(Cl)ccc1O | 235 |  |  | 
9 | O=C(CCN1CCN(c2ccccn2)CC1)Nc1ccc(Sc2c(O)nc3ccc(C(F)(F)F)cc3c2-c2cc(Cl)ccc2O)cc1 |  | 37 | 169 | 
10 | COc1ccc(Cl)cc1-c1c(SCC(O)CN2CCSCC2)c(O)nc2ccc(C(F)(F)F)cc12 (stereo not drawn) | 97 |  |  | 
11 | CCOC(=O)CN1CCN(C(=O)CSc2c(O)nc3ccc(C(F)(F)F)cc3c2-c2cc(Cl)ccc2O)CC1 | 281 | 19 |  | 
12 | CC1CCCN(CCCC(=O)CSc2c(O)nc3ccc(C(F)(F)F)cc3c2-c2cc(Cl)ccc2O)C1 (stereo not drawn) | 271 |  |  | 
13 | O=C(CSc1c(O)nc2ccc(C(F)(F)F)cc2c1-c1cc(Cl)ccc1O)N1CCN(CCOCCO)CC1 | 205 | 17 |  | 
14 | CN1CCN(CCC(=O)Nc2ccc(Sc3c(O)nc4ccc(C(F)(F)F)cc4c3-c3cc(Cl)ccc3O)cc2)CC1 | 474 | 30 |  | 
15 | CN1CCN(CC(=O)Nc2ccc(Sc3c(O)nc4ccc(C(F)(F)F)cc4c3-c3cc(Cl)ccc3O)cc2)CC1 | 246 | 19 |  | 
16 | CCCS(=O)(=O)Nc1ccc(Sc2c(O)nc3ccc(C(F)(F)F)cc3c2-c2cc(Cl)ccc2OC)cc1 |  |  |  | 95
17 | CCCS(=O)(=O)Nc1ccc(Sc2c(O)nc3ccc(C(F)(F)F)cc3c2-c2cc(Cl)ccc2O)cc1 |  |  |  | 255
18 | CN(C)CCN(C)CCC(=O)Nc1ccc(Sc2c(O)nc3ccc(C(F)(F)F)cc3c2-c2cc(Cl)ccc2O)cc1 | 489 | 29 |  | 
19 | O=C(CCCN1CCN(c2ccccn2)CC1)Nc1ccc(Sc2c(O)nc3ccc(C(F)(F)F)cc3c2-c2cc(Cl)ccc2O)cc1 |  | 37 | 197 | 

Row | SMILES | Activity (Oocyte [1]) [%] | Relaxation (Oryctolagus cuniculus) [%] | Activity (Oocyte [2]) [%] | Activity (Oocyte [3]) [%]
20 | COc1ccc(Cl)cc1-c1c(Sc2ccc(NS(=O)(=O)N(C)C)cc2)c(O)nc2ccc(C(F)(F)F)cc12 |  |  |  | 114
21 | COc1ccc(Cl)cc1-c1c(Sc2ccc(NS(=O)(=O)C(F)(F)F)cc2)c(O)nc2ccc(C(F)(F)F)cc12 | 235 | 21 |  | 
22 | O=C(CCCN1CCC(N2CCCCC2)CC1)CSc1c(O)nc2ccc(C(F)(F)F)cc2c1-c1cc(Cl)ccc1O | 298 |  |  | 
23 | CN1CCC(N(C)CCCC(=O)CSc2c(O)nc3ccc(C(F)(F)F)cc3c2-c2cc(Cl)ccc2O)C1 (stereo not drawn) | 226 |  |  | 
24 | Oc1ccc(Cl)cc1-c1c(SCC(O)CN2CCSCC2)c(O)nc2ccc(C(F)(F)F)cc12 (stereo not drawn) | 319 | 48 |  | 
25 | COc1ccc(Cl)cc1-c1c(SCC(O)CN2CCC(O)CC2)c(O)nc2ccc(C(F)(F)F)cc12 (stereo not drawn) | 125 |  |  | 
26 | OCCN1CCN(CC(O)CSc2c(O)nc3ccc(C(F)(F)F)cc3c2-c2cc(Cl)ccc2O)CC1 (stereo not drawn) | 287 | 44 |  | 
27 | NC(=O)C1CCN(C(=O)CSc2c(O)nc3ccc(C(F)(F)F)cc3c2-c2cc(Cl)ccc2O)CC1 | 203 | 67 |  | 
28 | O=C(CCN1CCCC1)CSc1c(O)nc2ccc(C(F)(F)F)cc2c1-c1cc(Cl)ccc1O | 335 | 30 |  | 
29 | CN1CCN(C(=O)CSc2c(O)nc3ccc(C(F)(F)F)cc3c2-c2cc(Cl)ccc2O)CC1 | 422 | 14 |  | 
30 | O=C(CCN1CCN(CCO)CC1)CSc1c(O)nc2ccc(C(F)(F)F)cc2c1-c1cc(Cl)ccc1O | 241 |  |  | 
31 | COc1ccc(Cl)cc1-c1c(SCC(O)CN2CCN(C)CC2)c(O)nc2ccc(C(F)(F)F)cc12 (stereo not drawn) | 163 |  |  | 
32 | CN(C)C1CCN(C(=O)CSc2c(O)nc3ccc(C(F)(F)F)cc3c2-c2cc(Cl)ccc2O)CC1 | 286 | 35 |  | 
33 | O=C(CCN1CCCC1)Nc1ccc(Sc2c(O)nc3ccc(C(F)(F)F)cc3c2-c2cc(Cl)ccc2O)cc1 | 264 | 35 |  | 
34 | CN(C)CCN(C)CC(=O)Nc1ccc(Sc2c(O)nc3ccc(C(F)(F)F)cc3c2-c2cc(Cl)ccc2O)cc1 | 231 | 16 |  | 
35 | CN(C)C1CCN(CC(=O)Nc2ccc(Sc3c(O)nc4ccc(C(F)(F)F)cc4c3-c3cc(Cl)ccc3O)cc2)CC1 | 292 | 19 |  | 
36 | CC1CCN(CCCC(=O)CSc2c(O)nc3ccc(C(F)(F)F)cc3c2-c2cc(Cl)ccc2O)CC1 | 213 |  |  | 
37 | O=C(CCCN1CCC(N2CCCCC2)CC1)Nc1ccc(Sc2c(O)nc3ccc(C(F)(F)F)cc3c2-c2cc(Cl)ccc2O)cc1 | 268 | 28 |  | 
38 | O=C(CCN1CCCCC1)CSc1c(O)nc2ccc(C(F)(F)F)cc2c1-c1cc(Cl)ccc1O | 199 |  |  | 

Row | SMILES | Activity (Oocyte [1]) [%] | Relaxation (Oryctolagus cuniculus) [%] | Activity (Oocyte [2]) [%] | Activity (Oocyte [3]) [%]
39 | CN1CCN(CCC(=O)CSc2c(O)nc3ccc(C(F)(F)F)cc3c2-c2cc(Cl)ccc2O)CC1 | 550 |  |  | 
40 | O=C(CSc1c(O)nc2ccc(C(F)(F)F)cc2c1-c1cc(Cl)ccc1O)N1CCN(CCO)CC1 | 151 | 22 |  | 
41 | CN(C)S(=O)(=O)Nc1ccc(Sc2c(O)nc3ccc(C(F)(F)F)cc3c2-c2cc(Cl)ccc2O)cc1 |  |  |  | 222
42 | COc1ccc(Cl)cc1-c1c(SCC(O)CN2CCN(C(C)=O)CC2)c(O)nc2ccc(C(F)(F)F)cc12 (stereo not drawn) | 192 |  |  | 
43 | CCN(CC)CC(O)CSc1c(O)nc2ccc(C(F)(F)F)cc2c1-c1cc(Cl)ccc1O (stereo not drawn) | 192 | 57 |  | 
44 | CN(C)CCN1CCN(CC(O)CSc2c(O)nc3ccc(C(F)(F)F)cc3c2-c2cc(Cl)ccc2O)CC1 (stereo not drawn) | 113 |  |  | 
45 | O=S(=O)(Nc1ccc(Sc2c(O)nc3ccc(C(F)(F)F)cc3c2-c2cc(Cl)ccc2O)cc1)C(F)(F)F | 277 | 32 |  | 
46 | O=c1[nH]c2ccc(C(F)(F)F)cc2c(-c2cc(Cl)ccc2O)c1CCO [BMS-223131] | 378 | 83.7 |  | 
47 | Oc1ccc(Cl)cc1-c1c(SCC(O)CN2CCCC2)c(O)nc2ccc(C(F)(F)F)cc12 (stereo not drawn) | 192 |  |  | 
48 | COc1ccc(Cl)cc1-c1c(SCC(O)CN2CCN(c3ncccn3)CC2)c(O)nc2ccc(C(F)(F)F)cc12 (stereo not drawn) |  |  |  | 80
49 | O=C(CCCN1CCCC1)Nc1ccc(Sc2c(O)nc3ccc(C(F)(F)F)cc3c2-c2cc(Cl)ccc2O)cc1 | 280 | 36 |  | 
50 | CC(=O)N1CCN(CCCC(=O)CSc2c(O)nc3ccc(C(F)(F)F)cc3c2-c2cc(Cl)ccc2O)CC1 | 284 |  |  | 
51 | O=S(=O)(CCCN1CCOCC1)Nc1ccc(Sc2c(O)nc3ccc(C(F)(F)F)cc3c2-c2cc(Cl)ccc2O)cc1 | 354 | 35 |  | 
52 | O=C(CN1CCOCC1)Nc1ccc(Sc2c(O)nc3ccc(C(F)(F)F)cc3c2-c2cc(Cl)ccc2O)cc1 |  | 34 | 296 | 
53 | Oc1ccc(Cl)cc1-c1c(SCC(O)CN2CCOCC2)c(O)nc2ccc(C(F)(F)F)cc12 (stereo not drawn) | 292 | 49 |  | 
54 | O=C(CN1CCN(c2ccccn2)CC1)Nc1ccc(Sc2c(O)nc3ccc(C(F)(F)F)cc3c2-c2cc(Cl)ccc2O)cc1 |  | 17 |  | 116
55 | O=C(CCN1CCC(N2CCCCC2)CC1)Nc1ccc(Sc2c(O)nc3ccc(C(F)(F)F)cc3c2-c2cc(Cl)ccc2O)cc1 | 255 | 23 |  | 
56 | O=C(CN1CCCC1)Nc1ccc(Sc2c(O)nc3ccc(C(F)(F)F)cc3c2-c2cc(Cl)ccc2O)cc1 | 291 | 28 |  | 
57 | CN(C)CCCN(C)CCC(=O)CSc1c(O)nc2ccc(C(F)(F)F)cc2c1-c1cc(Cl)ccc1O | 178 |  |  | 
